# From US10703757B2, “Compounds and methods for CDK8 modulation and indications therefor” (Plexxikon Inc., priority 2016, dated 2020)
# Tested on: CDK8 (phosphorylation of STAT1 at serine 727 in A549 cells)
# Assay: Cell based Phospho-STAT1 assay (IFNγ-stimulated A549 cells, AlphaLISA)
# Settings: Homo sapiens, A549, A549 cells, phospho-STAT1 after IFNγ stimulation
# Method: Determine Inhibitor Activity Against CDK8 in Cell Based Phospho-STAT1 Assay
# This assay measures the phosphorylation of the CDK8 substrate STAT1 following Interferon-gamma (IFNγ) stimulation^1. The lung carcinoma cell line A549 is seeded in a 96 well plate in 50 μL of culture media at 5×10^4 cells/well and incubated at 37° C. overnight. Serial dilutions of compounds (in total volume of 50 μL culture media) are added to the cells and incubated at 37° C. for one hour. Human IFNγ (R&D Systems) is added to the cells at a 10 ng/mL final concentration. 4 wells containing DMSO treated cells stimulated with IFNγ serve as high controls and 4 wells containing DMSO treated unstimulated cells serve as low controls. After 30 minute IFNγ stimulation at 37° C., the culture media is removed and 50 μL of 1×AlphaLISA lysis buffer (PerkinElmer GA, USA) is added to each well. 5 μL cell lysate is transferred to a 384 well AlphaPlate (PerkinElmer GA, USA) and 5 μL containing 0.156 nM Phospho-STAT1 (Ser727) rabbit monoclonal antibody (Cell Signaling Technology), 0.156 nM Mouse Anti-STAT1 antibody (BD Transduction Laboratories), and 10 μg/mL Anti-rabbit IgG AlphaLISA acceptor beads (PerkinElmer GA, USA) diluted in 1× AlphaLISA immunoassay buffer (PerkinElmer GA, USA) is added to the cell lysates and incubated at room temperature for 90 minutes. 5 μL Anti-Mouse IgG Alpha donor beads diluted in 1× AlphaLISA immunoassay buffer (PerkinElmer GA, USA) is added to the reaction mixture and incubated at room temperature for 90 minutes. Upon excitation of these beads with laser light at 680 nm, singlet oxygen is produced. This singlet oxygen is rapidly quenched, unless the AlphaLISA Anti-Rabbit IgG acceptor beads are in close proximity, in which case a proximity signal can be measured at […]. In the presence of cellular CDK8 catalytic activity, there is a very strong proximity signal. Selective CDK8 inhibitors affect a decrease in this proximity signal through a decrease in phosphorylation of STAT1 at serine 727. The percentage inhibition at individual concentrations relative to high and low controls is calculated. The data are analyzed by using nonlinear regression to generate IC50 values.
row,Structure (SMILES),IC50
1,"Cc1noc(C)c1-c1ccc(-c2cnn3cccc(C#CC(C)(C)O)c23)cc1 [Compound P-0227, 4-(3-(4-(3,5-dimethylisoxazol-4-yl)phenyl)pyrazolo[1,5-a]pyridin-4-yl)-2-methylbut-3-yn-2-ol]",1000 to 10000 nM
2,"Cc1nn(C)c(C)c1-c1ccc(-c2cnn3cccc(C#CC(C)(C)O)c23)cc1 [Compound P-0236, 2-methyl-4-(3-(4-(1,3,5-trimethyl-1H-pyrazol-4-yl)phenyl)pyrazolo[1,5-a]pyridin-4-yl)but-3-yn-2-ol]",1000 to 10000 nM
3,"COc1ncc(-c2cnn3cccc(C#CC(C)(C)O)c23)cn1 [Compound P-0288, 4-(3-(2-methoxypyrimidin-5-yl)pyrazolo[1,5-a]pyridin-4-yl)-2-methylbut-3-yn-2-ol]",100 to 1000 nM
4,"COC(=O)N1CCC(Oc2cccc3ncc(-c4ccc(-c5cnn(C(F)F)c5)cc4)n23)CC1 [Compound P-0291, methyl 4-((3-(4-(1-(difluoromethyl)-1H-pyrazol-4-yl)phenyl)imidazo[1,2-a]pyridin-5-yl)oxy)piperidine-1-carboxylate]",100 to 1000 nM
5,"CNC(=O)N1CCC(Oc2cccc3ncc(-c4ccc(-c5cnn(C(F)F)c5)cc4)n23)CC1 [Compound P-0292, 4-((3-(4-(1-(difluoromethyl)-1H-pyrazol-4-yl)phenyl)imidazo[1,2-a]pyridin-5-yl)oxy)-N-methylpiperidine-1-carboxamide]",1000 to 10000 nM
6,"Cn1cc(C#Cc2cnc3cccc(N4CCC(CC(N)=O)CC4)n23)cn1 [Compound P-0294, 2-(1-(3-((1-methyl-1H-pyrazol-4-yl)ethynyl)imidazo[1,2-a]pyridin-5-yl)piperidin-4-yl)acetamide]",1000 to 10000 nM
7,"CS(=O)(=O)N1CCC(Oc2cccc3ncc(-c4ccc(-c5cnn(C(F)F)c5)cc4)n23)CC1 [Compound P-0298, 3-(4-(1-(difluoromethyl)-1H-pyrazol-4-yl)phenyl)-5-((1-(methylsulfonyl)piperidin-4-yl)oxy)imidazo[1,2-a]pyridine]",1000 to 10000 nM
8,"NC(=O)N1CCC(Oc2cccc3ncc(-c4ccc(-c5cnn(C(F)F)c5)cc4)n23)CC1 [Compound P-0299, 4-((3-(4-(1-(difluoromethyl)-1H-pyrazol-4-yl)phenyl)imidazo[1,2-a]pyridin-5-yl)oxy)piperidine-1-carboxamide]",1000 to 10000 nM
9,"Cn1cc(-c2ccc(-c3cnn4cccc(C5=CCS(=O)(=O)CC5)c34)cc2)cn1 [Compound P-0300, 4-(3-(4-(1-methyl-1H-pyrazol-4-yl)phenyl)pyrazolo[1,5-a]pyridin-4-yl)-3,6-dihydro-2H-thiopyran 1,1-dioxide]",100 to 1000 nM
10,"Cn1cc(-c2ccc(-c3cnn4cccc(C5=CCSCC5)c34)cc2)cn1 [Compound P-0301, 4-(3,6-dihydro-2H-thiopyran-4-yl)-3-(4-(1-methyl-1H-pyrazol-4-yl)phenyl)pyrazolo[1,5-a]pyridine]",100 to 1000 nM
11,"Cn1cc(-c2ccc(C3=C4C(C5CCC(C#N)CC5)=CC=CN4NC3)cc2)cn1 (stereo not drawn) [Compound P-0302, 4-(3-(4-(1-methyl-1H-pyrazol-4-yl)phenyl)-1,2-dihydropyrazolo[1,5-a]pyridin-4-yl)cyclohexane-1-carbonitrile]",1000 to 10000 nM
12,"FC(F)n1cc(-c2ccc(-c3cnc4cccc(OC5CCNCC5)n34)cc2)cn1 [Compound P-0305, 3-(4-(1-(difluoromethyl)-1H-pyrazol-4-yl)phenyl)-5-(piperidin-4-yloxy)imidazo[1,2-a]pyridine]",1000 to 10000 nM
13,"CC(C)(C)OC(=O)N1CCC(Oc2cccc3ncc(-c4ccc(-c5cnn(C(F)F)c5)cc4)n23)CC1 [Compound P-0306, tert-butyl 4-((3-(4-(1-(difluoromethyl)-1H-pyrazol-4-yl)phenyl)imidazo[1,2-a]pyridin-5-yl)oxy)piperidine-1-carboxylate]",1000 to 10000 nM
14,"CC(=O)NC(C)(C)C#Cc1cccn2ncc(-c3ccc(-c4cnn(C)c4)cc3)c12 [Compound P-0307, N-(2-methyl-4-(3-(4-(1-methyl-1H-pyrazol-4-yl)phenyl)pyrazolo[1,5-a]pyridin-4-yl)but-3-yn-2-yl)acetamide]",100 to 1000 nM
15,"COC(=O)CC1CCN(c2cccc3ncc(C#Cc4cnn(C)c4)n23)CC1 [Compound P-0312, methyl 2-(1-(3-((1-methyl-1H-pyrazol-4-yl)ethynyl)imidazo[1,2-a]pyridin-5-yl)piperidin-4-yl)acetate]",1000 to 10000 nM
16,"Cn1ncc2cc(-c3cnn4ccnc(N5CCC(C#N)CC5)c34)ccc21 [Compound P-0326, 1-[3-(1-methylindazol-5-yl)pyrazolo[1,5-a]pyrazin-4-yl]piperidine-4-carbonitrile]",1000 to 10000 nM
17,"N#CC1CCN(c2c(-c3ccc4c(c3)OC(F)(F)O4)cnc3[nH]ccc23)CC1 [Compound P-0334, 1-(5-(2,2-difluorobenzo[d][1,3]dioxol-5-yl)-1H-pyrrolo[2,3-b]pyridin-4-yl)piperidine-4-carbonitrile]",100 to 1000 nM
18,"Cn1ncc2cc(-c3cnc4[nH]ccc4c3C3=CCC(C(N)=O)CC3)ccc21 (stereo not drawn) [Compound P-0335, 4-(5-(1-methyl-1H-indazol-5-yl)-1H-pyrrolo[2,3-b]pyridin-4-yl)cyclohex-3-ene-1-carboxamide]",0.1 to 100 nM
19,"Cn1ncc2cc(-c3cnc4[nH]ccc4c3NCC(C)(C)C#N)ccc21 [Compound P-0336, 2,2-dimethyl-3-((5-(1-methyl-1H-indazol-5-yl)-1H-pyrrolo[2,3-b]pyridin-4-yl)amino)propanenitrile]",100 to 1000 nM
20,"Cn1cc(-c2ccc(-c3cnn4cccc(C#CC5(O)CCNCC5)c34)cc2)cn1 [Compound P-0338, 4-((3-(4-(1-methyl-1H-pyrazol-4-yl)phenyl)pyrazolo[1,5-a]pyridin-4-yl)ethynyl)piperidin-4-ol]",100 to 1000 nM
21,"Cn1cc(-c2ccc(-c3cnc4ccc(C#N)c(N5CCC(C#N)CC5)n34)cc2)cn1 [Compound P-0339, 5-(4-cyanopiperidin-1-yl)-3-(4-(1-methyl-1H-pyrazol-4-yl)phenyl)imidazo[1,2-a]pyridine-6-carbonitrile]",100 to 1000 nM
22,"Cn1ncc2ccc(-c3cnc4[nH]ccc4c3C3=CCC(C#N)CC3)cc21 (stereo not drawn) [Compound P-0340, 4-(5-(1-methyl-1H-indazol-6-yl)-1H-pyrrolo[2,3-b]pyridin-4-yl)cyclohex-3-ene-1-carbonitrile]",0.1 to 100 nM
23,"Cc1nn(C)c2ccc(-c3cnc4[nH]ccc4c3C3=CCC(C#N)CC3)cc12 (stereo not drawn) [Compound P-0342, 4-(5-(1,3-dimethyl-1H-indazol-5-yl)-1H-pyrrolo[2,3-b]pyridin-4-yl)cyclohex-3-ene-1-carbonitrile]",0.1 to 100 nM
24,"Cn1ncc2cc(-c3cnc4[nH]ccc4c3C#CC(C)(C)O)ccc21 [Compound P-0343, 2-methyl-4-(5-(1-methyl-1H-indazol-5-yl)-1H-pyrrolo[2,3-b]pyridin-4-yl)but-3-yn-2-ol]",100 to 1000 nM
25,"CC(C)(C)n1ncc2cc(-c3cnc4[nH]ccc4c3C3=CCC(C#N)CC3)ccc21 (stereo not drawn) [Compound P-0344, 4-(5-(1-(tert-butyl)-1H-indazol-5-yl)-1H-pyrrolo[2,3-b]pyridin-4-yl)cyclohex-3-ene-1-carbonitrile]",100 to 1000 nM
26,"Cn1ncc2cc(-c3nnc4cccc(C5=CCC(C#N)CC5)n34)ccc21 (stereo not drawn) [Compound P-0345, 4-(3-(1-methyl-1H-indazol-5-yl)-[1,2,4]triazolo[4,3-a]pyridin-5-yl)cyclohex-3-ene-1-carbonitrile]",1000 to 10000 nM
27,"N#CC1CCC(c2cccn3ncc(-c4ccc(-c5cnn(C(F)F)c5)cc4)c23)CC1 (stereo not drawn) [Compound P-0346, 4-(3-(4-(1-(difluoromethyl)-1H-pyrazol-4-yl)phenyl)pyrazolo[1,5-a]pyridin-4-yl)cyclohexane-1-carbonitrile]",100 to 1000 nM
28,"Cn1cc(-c2ccc(-c3cnn4cccc(C5CCC(C#N)CC5)c34)cc2)cn1 (stereo not drawn) [Compound P-0347, 4-(3-(4-(1-methyl-1H-pyrazol-4-yl)phenyl)pyrazolo[1,5-a]pyridin-4-yl)cyclohexane-1-carbonitrile]",100 to 1000 nM
29,"FC(F)n1cc(-c2ccc(-c3cnc4cccc(OC5CCSCC5)n34)cc2)cn1 [Compound P-0348, 3-(4-(1-(difluoromethyl)-1H-pyrazol-4-yl)phenyl)-5-((tetrahydro-2H-thiopyran-4-yl)oxy)imidazo[1,2-a]pyridine]",1000 to 10000 nM
30,"O=S1(=O)CCC(Oc2cccc3ncc(-c4ccc(-c5cnn(C(F)F)c5)cc4)n23)CC1 [Compound P-0349, 4-((3-(4-(1-(difluoromethyl)-1H-pyrazol-4-yl)phenyl)imidazo[1,2-a]pyradin-5-yl)oxy)tetrahydro-2H-thiopyran 1,1-dioxide]",100 to 1000 nM
